Tests used:
Assay type in all cases: in vivo
mice [1] = assay: lethality in mice on inhalation (LC50); settings: 10 minutes, rotating drum, when two figures are given, the actual value lies between them
Protocol: (§1) Mice were exposed to the anesthetic for a period of 10 minutes in a rotating drum. Observations were then made of the pinch reflex, the corneal reflex and the return of the righting reflex. At least four graded doses were employed to determine the minimum concentration required to anesthetize 50% of the mice used (AC50) and the minimum concentration required to kill 50% of the mice (LC50). The anesthetic index (AI) was then calculated from these minimum concentrations.

[2] = inhalation anesthesia test in mice (10 min exposure in a rotating drum; pinch, corneal and righting reflexes); settings: mouse, in vivo, inhaled or intranasal; calculated from LC50 and AC50 in mice; read-out: AI (anesthetic index, LC50/AC50)
Protocol: as §1

mice [3] = assay: as above; settings: for potency as general anesthetics: administered in inhalation-anesthetic-susceptible organisms, in words; for AC50 (minimum concentration required to anesthetize 50% of the mice): inhalation, 10 minutes, rotating drum, at least four graded doses
Protocol: as §1

CC1(F)CC1(F)Br (centres unmarked) [Example 3, 1-bromo-1,2-difluoro-2-methylcyclopropane]
LC50 (minimum concentration required to kill 50% of the mice) (mice [1]): 5 % volume
selectivity ratio at 10 min [2]: 10
potency as general anesthetics (mice [3]): high potency
AC50 (minimum concentration required to anesthetize 50% of the mice) (mice [3]): 0.5 % volume

CC1CC1(F)Br (centres unmarked) [Example 4, 1-bromo-1-fluoro-2-methylcyclopropane]
LC50 (minimum concentration required to kill 50% of the mice) (mice [1]): 4-6 % volume
selectivity ratio at 10 min [2]: > 2
potency as general anesthetics (mice [3]): high potency
AC50 (minimum concentration required to anesthetize 50% of the mice) (mice [3]): < 2 % volume
